Laboratory results reported in publication PMC1784591 (Infectious Diseases in Obstetrics and Gynecology, 2004).
Structures can show the parent of a compound that is named as a salt.

Columns and labels:
[1] = test system: term human placenta (single cotyledon); assay: ex vivo human placental perfusion, closed-closed recirculation system; type: in vitro ADME; details: system closed for 1-5 h; peak and trough concentrations
[2] = test system: term human placenta (single cotyledon); assay: ex vivo human placental perfusion, single cotyledon, open system; details: range over placentas
[3] = cited from earlier work
[4] = cited from earlier work; remark: listed apart in the source
[5] = cited from earlier work; remark: listed apart in the source

**Q.** Which results are given for CN[C@H](CC(C)C)C(=O)N[C@H]1C(=O)N[C@@H](CC(N)=O)C(=O)N[C@H]2C(=O)N[C@H]3C(=O)N[C@H](C(=O)N[C@H](C(=O)O)c4cc(O)cc(O)c4-c4cc3ccc4O)[C@H](O)c3ccc(c(Cl)c3)Oc3cc2cc(c3O[C@@H]2O[C@H](CO)[C@@H](O)[C@H](O)[C@H]2O[C@H]2C[C@](C)(N)[C@H](O)[C@H](C)O2)Oc2ccc(cc2Cl)[C@H]1O [vancomycin, vancomycin hydrochloride]?
**A.** accumulation of vancomycin (fetal) [1]: No accumulation; Clearance index, mean peak range ([2]; peak concentrations): 0.000-0.080; Clearance index, mean trough range ([2]; trough concentrations): 0.00-0.17; excreted by glomerular filtration ([3]; non-pregnant subjects): 90%; CSF levels ([3]; without meningitis): undetectable; heparin concentration above which vancomycin precipitates when mixed [4]: more than 1 unit/ml; fraction bound to plasma proteins (unavailable for transfer) [5]: a third to a half; bound to plasma proteins ([5]; non-pregnant subjects): 30-55%
